The source of these data is patent publication US20060204975A1, “Markers for cyclin dependent kinase inhibitors” (Cyclacel Limited, priority 2003, published 2006).

Structures are written as SMILES.

For one data set, the system named is A549 cells. The experiment in a line: Affymetrix microarray gene expression in CYC202 treated A549 cells. The format is cell-based, human. As to conditions: 45 and 75 micromolar. The method, then: HT29 and A549 cells, which are derived from human colon and lung tumours respectively, were seeded at approximately 20% confluency, which was equivalent to 1.5×10^6 cells per 10 cm plate in DMEM containing 10% FCS, so that they were actively proliferating upon treatment with the compound the following day.
[…]. RNA was extracted from the A549 cells used in the microarray experiment using TRIZOL reagent (Invitrogen) according to the manufacturer's instructions. For all other cell lines, total RNA was extracted from the cultures with the RNeasy Midi Kit (Qiagen, Hilden, Germany) according to the manufacturer's instructions. […] RNA was eluted in RNase-free water and quantified using RiboGreen (Molecular Probes, Leiden, The Netherlands). […]
RNA extracted from A549 cells was used with the Hu Gene FL Cartridge while RNA from HT-29 cells and PBMC was loaded onto Hu Gene U133A Cartridges. […] The biotinylated cRNA was detected with an antibody amplification step using normal goat IgG as blocking reagent, final concentration 0.1 mg/ml (Sigma) and biotinylated anti-streptavidin antibody (goat), final concentration […] (Vector Laboratories). […] The readings from the quantitative scanning were analysed by the Affymetrix Gene Expression Analysis Software. […]
Data from the Affymetrix Chips were analysed at individual time points following CYC202 treatment.

The next data set has as its system PNUTS. The experiment in a line: QPCR of PNUTS in whole blood (PAXgene) exposed in vitro to CYC202. The format is cell-based, human. As to conditions: whole blood of several donors exposed in vitro to 30 μM CYC202 for […]. As to the method:
In addition, RNA from whole blood samples was analysed by QPCR. Blood from volunteers was collected into Vacutainer Heparin CPT tubes. […] The blood was then transferred into PAXgene tubes (PreAnalytiX), inverted several times, and placed at −20° C. after an initial incubation of 2 hours at room temperature to allow lysis of the cells. When ready for analysis, blood was left to thaw at room temperature for approximately 2 hours, and then processed according to the manufacturer's instructions. The optional DNase digestion step was included. RNA samples were quantified and then used directly in QPCR assays.
In addition, where the expression levels of housekeeper genes have been measured in these samples, the data has been normalized using a derivative of this formula: 2^ΔCttarget/2^ΔCthousekeeper Results
Blood from volunteers was collected into Vacutainer Heparin CPT tubes at Hawkhill Medical Centre, Dundee and treated as described above in Example 2. […]
Blood that had been stored for various lengths of time and under various storage conditions was left to thaw at room temperature for approximately 2 hours, and then processed according to the manufacturer's instructions. […] RNA samples were quantified and then used directly in QPCR assays.

Data set [1] in a line: Pharmacokinetic analysis of breast cancer patient 02-2-01 (08). Type of data set: in vivo, human. As to conditions: 600 mg b.i.d. oral, Day 1. As to the method:
Effects on PNUTS and other target genes in vitro has been observed with concentrations of 7.5-15 μM for 1.5-3 hours, which is within the range represented here.

The next data set concerns Apolipoprotein A1. Put plainly: SELDI-TOF-MS plasma proteomic profile, 28 kDa biomarker cluster. The note with it: plasma fraction 4, SAX chip pH9, 16 Phase 1b patients. Type of data set: in vivo, human. As to the method: (§1) All samples were stored at −80° C. in aliquots.
(§2) Proteins were then detected with the ProteinChip® Reader.

The next data set relates to 7 kDa biomarker cluster. The experiment in a line: SELDI-TOF-MS plasma proteomic profile, 7 kDa biomarker cluster. The format is in vivo, human. As to conditions: 16 Phase 1b patients, last day of treatment. As to the method: as §1, §2
For another data set, the target named is CDK 7 (Homo sapiens, UniProt P50613). The note with it: cited from earlier work.
For a further data set, the target named is CDK 9 (Homo sapiens, UniProt P50750). As to conditions: cited from earlier work.
A further data set has as its system cell cycle progression. The note with it: cited from earlier work.

Sequence of CDK 9 (P50750 whole entry, species assumed): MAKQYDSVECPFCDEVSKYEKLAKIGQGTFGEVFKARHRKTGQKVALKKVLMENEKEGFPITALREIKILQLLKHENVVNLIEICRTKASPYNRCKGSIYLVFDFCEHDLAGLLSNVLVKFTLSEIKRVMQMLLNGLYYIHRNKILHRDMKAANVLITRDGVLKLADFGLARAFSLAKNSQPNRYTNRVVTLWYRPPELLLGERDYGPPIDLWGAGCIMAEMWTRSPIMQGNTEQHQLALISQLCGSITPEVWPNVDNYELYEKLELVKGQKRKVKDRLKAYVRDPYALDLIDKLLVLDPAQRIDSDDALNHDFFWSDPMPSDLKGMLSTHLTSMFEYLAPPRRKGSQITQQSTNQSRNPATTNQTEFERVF
Sequence of CDK 9 (O60563 whole entry partner, species assumed): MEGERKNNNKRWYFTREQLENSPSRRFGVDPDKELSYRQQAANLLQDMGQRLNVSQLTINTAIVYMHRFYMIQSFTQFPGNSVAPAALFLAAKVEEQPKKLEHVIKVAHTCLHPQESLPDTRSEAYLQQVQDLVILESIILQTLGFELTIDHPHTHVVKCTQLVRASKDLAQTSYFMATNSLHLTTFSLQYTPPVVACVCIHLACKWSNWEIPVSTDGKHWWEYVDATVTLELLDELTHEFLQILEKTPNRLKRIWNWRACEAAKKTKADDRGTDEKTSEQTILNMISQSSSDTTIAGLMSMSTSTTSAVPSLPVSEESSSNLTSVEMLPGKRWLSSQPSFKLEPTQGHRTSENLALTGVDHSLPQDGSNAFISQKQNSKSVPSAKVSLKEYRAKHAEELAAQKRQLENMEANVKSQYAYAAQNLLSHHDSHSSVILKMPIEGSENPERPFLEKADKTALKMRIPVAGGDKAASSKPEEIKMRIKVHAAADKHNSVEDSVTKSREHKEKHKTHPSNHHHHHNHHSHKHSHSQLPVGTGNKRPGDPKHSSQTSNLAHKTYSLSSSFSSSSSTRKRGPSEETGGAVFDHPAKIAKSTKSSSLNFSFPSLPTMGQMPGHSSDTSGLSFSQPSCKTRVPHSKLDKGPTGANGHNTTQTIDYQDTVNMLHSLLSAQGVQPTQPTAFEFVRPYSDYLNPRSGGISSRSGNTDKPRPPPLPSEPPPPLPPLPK
Sequence of CDK 7 (P50613 whole entry, species assumed): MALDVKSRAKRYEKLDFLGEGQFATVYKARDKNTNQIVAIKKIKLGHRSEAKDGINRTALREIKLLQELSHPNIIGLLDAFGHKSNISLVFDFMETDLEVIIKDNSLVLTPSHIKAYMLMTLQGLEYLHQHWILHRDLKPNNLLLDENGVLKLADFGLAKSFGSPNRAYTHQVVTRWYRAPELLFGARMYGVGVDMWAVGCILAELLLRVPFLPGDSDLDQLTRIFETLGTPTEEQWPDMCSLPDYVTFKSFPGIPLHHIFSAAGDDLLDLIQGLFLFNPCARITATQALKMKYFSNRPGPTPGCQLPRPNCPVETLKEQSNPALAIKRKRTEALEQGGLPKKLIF
Sequence of CDK 7 (P51946 whole entry partner, species assumed): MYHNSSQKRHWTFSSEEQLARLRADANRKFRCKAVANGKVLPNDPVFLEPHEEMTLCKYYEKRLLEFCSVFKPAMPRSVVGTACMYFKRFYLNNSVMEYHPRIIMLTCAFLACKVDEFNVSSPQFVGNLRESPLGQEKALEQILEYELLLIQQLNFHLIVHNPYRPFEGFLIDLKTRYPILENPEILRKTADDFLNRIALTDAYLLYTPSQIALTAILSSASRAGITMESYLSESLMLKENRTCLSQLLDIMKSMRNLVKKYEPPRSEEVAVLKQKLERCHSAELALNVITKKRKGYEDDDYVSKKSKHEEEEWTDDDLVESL

With `CC[C@H](CO)Nc1nc(NCc2ccccc2)c2ncn(C(C)C)c2n1` [CYC202, 2-(R)-(1-ethyl-2-hydroxyethylamino)-6-benzylamino-9-isopropylpurine], in the data set with A549 cells (2 hr), the “gene expression (microarray, genes of FIG. 9/11)” value was “significantly down regulated”. For the same compound, the “gene expression (microarray, genes of FIG. 10/12)” value with A549 cells (4 hr) is on record as “significantly down regulated”. The “expression of PNUTS normalised to housekeeper (HPRT)” value in the data set on PNUTS is reported as “reproducibly down-regulated”. Further, in data set [1], the “plasma levels of CYC202” value was “maintained efficacious levels of CYC202 over several hours”. Besides, the “normalised intensity M/Z 28126, after treatment group” value in the data set on Apolipoprotein A1 (last day of treatment, before treatment 32.0+/−9.6, p=0.0058) is recorded as 20.4+/−9.9. The “normalised intensity M/Z 27923, after treatment group” value with Apolipoprotein A1 (last day of treatment, before treatment 50.6+/−11.8, p=0.00097) is reported as 31.8+/−13.7. In the data set on Apolipoprotein A1 (p=0.19), the “change of marker M/Z 28799 after vs before treatment” value is on record as “not deemed to be statistically significant”. Moreover, the “change of marker M/Z 28292 after vs before treatment” value in the data set on Apolipoprotein A1 (p=0.95) is on record as “not deemed to be statistically significant”. Further, the “normalised intensity M/Z 6984, after treatment group” value in the data set with 7 kDa biomarker cluster (neat plasma, CM10 chip, other group 3.1+/−1.2, p=0.0000014) is reported as 42.2+/−11.8. Besides, in the data set on 7 kDa biomarker cluster (neat plasma, CM10 chip, other group 5.6+/−1.9, p=0.0000014), the “normalised intensity M/Z 6787, after treatment group” value is 27.5+/−10.4. The “normalised intensity M/Z 6998, after treatment group” value with 7 kDa biomarker cluster (plasma fraction 6, H50 chip, other group 2.1+/−0.7, p=0.0000031) is 42.0+/−9.1. The “normalised intensity M/Z 6799, after treatment group” value in the data set with 7 kDa biomarker cluster (plasma fraction 6, H50 chip, other group 2.9+/−1.2, p=0.0000031) is recorded as 29.1+/−8.1. The “inhibition of CDK 7” value on CDK 7 is listed as “inhibit”. At CDK 9, the “inhibition of CDK 9” value was “inhibit”. Also, the “effect on cell cycle progression” value in the data set on cell cycle progression is “block cell cycle progression in late G1/early S and in M-phase”.
